Values of other authors in patent US5637565A, “Purified form of streptogramins, its preparation and pharmaceutical compositions containing it” (Rhone-Poulenc Rorer S.A., priority 1993, dated 1997).

Details: purified crystalline product

CC1=C\[C@@H](O)CC(=O)Cc2nc(co2)C(=O)N2CCC=C2C(=O)O[C@H](C(C)C)[C@H](C)/C=C/C(=O)NC\C=C\1 [pristinamycin IIA]
bioavailability: too low
